According to patent publication US20240352309A1, “FLUORESCENT DYE, AND PREPARATION METHOD THEREFOR AND USE THEREOF” (FLUORESCENCE DIAGNOSIS (SHANGHAI) BIOTECH COMPANY LTD., priority 2021, published 2024):

How the values were obtained:
[1] = test system: RNA aptamer in stable cell line (293T/17); assay: Flow detection of cells expressing RNA aptamer (Test Example 6); format: cell-based; conditions: 1 μM dye in PBS, 5 minutes
[2] = Emission spectra in glycerol, wavelength adjustment (Test Example 3); format: physicochemical; conditions: 1×10^−5 M, dye13 vs dye12, ring sulfur turned into nitrogen
Method: The dye5, dye6, dye11, dye12, dye13, dye14, dye39 and dye42 were added into glycerol to prepare a solution with a final concentration of 1×10^−5 M, fluorescent dyes were excited with corresponding maximum excitation wavelength so as to obtain the emission spectra, and some of the emission spectra were normalized.

[3] = Fluorescence emission in glycerol and methanol (Test Example 1); format: physicochemical
Method: The fluorescent dye (molecular rotors) prepared in Examples dye1-dye42 were dissolved in DMSO each to prepare a mother solution with a concentration of 1×10^−2 M, and each mother solution was added to glycerol and methanol respectively and was mixed well, and a solution with a final concentration of 1×10^−5 M was prepared.

shortening of emission wavelength [2]: 20 nm | Fluorescence intensity ratio in glycerol and methanol ([3]; 1×10^−5 M in glycerol vs methanol, maximum excitation wavelength): 874 | Emission wavelength ([3]; 1×10^−5 M, excited at maximum excitation wavelength of each dye): 630 nm
Structure (SMILES): CN(CCO)c1cc2sc(/C=C3\NC(=S)NC3=O)cc2s1 [dye13]
dye background fluorescence before binding [1]: very low | fluorescence after binding to RNA aptamer in cells [1]: notably activated
